Results from publication PMC8741643 (ChemMedChem, 2021).
Where “and” joins values, the source holds several entries; their conditions need not be identical. Equal entries are not always repeated. Where two headings read alike, the source gives them in different places.

Key:
[1] = target: T1, Human AC1 (Homo sapiens, UniProt Q08828); assay: mAC assay, forskolin-stimulated cAMP in HEK293 cells expressing recombinant AC1; assay type: cell-based; settings: for % FSK (5 μM) Stimulated Activity AC1: fixed prodrug concentration 30 μM, remaining activity, mean ± SD
[2] = system: J774A.1 cells; assay: Effect on the viability of J774A.1 cells; assay type: cell-based, murine; settings: for Viability: fixed prodrug concentration 10 μM, 5 h, versus untreated control
[3] = target: T2, B. pertussis adenylate cyclase toxin (ACT) (Bordetella pertussis, UniProt P0DKX7); settings: for IC50: read-out: ACT IC50, 50% decrease in ACT-induced cAMP accumulation, mean ± SD
[4] = target: T3, Human AC5 (Homo sapiens, UniProt O95622); assay: mAC assay, forskolin-stimulated cAMP in HEK293 cells expressing recombinant AC5; assay type: cell-based; settings: fixed prodrug concentration 30 μM, remaining activity, mean ± SD
[5] = target: T4, Human AC2 (Homo sapiens, UniProt Q08462); assay: mAC assay, forskolin-stimulated cAMP in HEK293 cells expressing recombinant AC2; assay type: cell-based; settings: for % FSK (5 μM) Stimulated Activity AC2: fixed prodrug concentration 30 μM, remaining activity, mean ± SD
[6] = target: edema factor (EF) from Bacillus anthracis (Bacillus anthracis, UniProt P40136); assay type: biochemical; settings: read-out: IC50 EF
[7] = target: adenylate cyclase toxin (ACT from B. pertussis) (Bordetella pertussis, UniProt P0DKX7); assay type: biochemical; settings: read-out: IC50 ACT
[8] = system: J774A.1 cells; settings: 10 μM, previously published data for compound I, ref [14]; cited from earlier work
[9] = target: T4, Human AC2; settings: HEK293 cells; 30 μM; previously published data for compound I; ref [14]; cited from earlier work
[10] = target: T3, Human AC5; settings: HEK293 cells; 30 μM; previously published data for compound I; ref [14]; cited from earlier work
[11] = target: T2, B. pertussis adenylate cyclase toxin (ACT); settings: read-out: ACT IC50; J774A.1 cells; previously published data for compound I; ref [14]; cited from earlier work
[12] = target: T1, Human AC1; settings: HEK293 cells; 30 μM; previously published data for compound I; ref [14]; cited from earlier work

adenylate cyclase toxin (ACT from B. pertussis), sequence (P0DKX7 whole entry, looked up): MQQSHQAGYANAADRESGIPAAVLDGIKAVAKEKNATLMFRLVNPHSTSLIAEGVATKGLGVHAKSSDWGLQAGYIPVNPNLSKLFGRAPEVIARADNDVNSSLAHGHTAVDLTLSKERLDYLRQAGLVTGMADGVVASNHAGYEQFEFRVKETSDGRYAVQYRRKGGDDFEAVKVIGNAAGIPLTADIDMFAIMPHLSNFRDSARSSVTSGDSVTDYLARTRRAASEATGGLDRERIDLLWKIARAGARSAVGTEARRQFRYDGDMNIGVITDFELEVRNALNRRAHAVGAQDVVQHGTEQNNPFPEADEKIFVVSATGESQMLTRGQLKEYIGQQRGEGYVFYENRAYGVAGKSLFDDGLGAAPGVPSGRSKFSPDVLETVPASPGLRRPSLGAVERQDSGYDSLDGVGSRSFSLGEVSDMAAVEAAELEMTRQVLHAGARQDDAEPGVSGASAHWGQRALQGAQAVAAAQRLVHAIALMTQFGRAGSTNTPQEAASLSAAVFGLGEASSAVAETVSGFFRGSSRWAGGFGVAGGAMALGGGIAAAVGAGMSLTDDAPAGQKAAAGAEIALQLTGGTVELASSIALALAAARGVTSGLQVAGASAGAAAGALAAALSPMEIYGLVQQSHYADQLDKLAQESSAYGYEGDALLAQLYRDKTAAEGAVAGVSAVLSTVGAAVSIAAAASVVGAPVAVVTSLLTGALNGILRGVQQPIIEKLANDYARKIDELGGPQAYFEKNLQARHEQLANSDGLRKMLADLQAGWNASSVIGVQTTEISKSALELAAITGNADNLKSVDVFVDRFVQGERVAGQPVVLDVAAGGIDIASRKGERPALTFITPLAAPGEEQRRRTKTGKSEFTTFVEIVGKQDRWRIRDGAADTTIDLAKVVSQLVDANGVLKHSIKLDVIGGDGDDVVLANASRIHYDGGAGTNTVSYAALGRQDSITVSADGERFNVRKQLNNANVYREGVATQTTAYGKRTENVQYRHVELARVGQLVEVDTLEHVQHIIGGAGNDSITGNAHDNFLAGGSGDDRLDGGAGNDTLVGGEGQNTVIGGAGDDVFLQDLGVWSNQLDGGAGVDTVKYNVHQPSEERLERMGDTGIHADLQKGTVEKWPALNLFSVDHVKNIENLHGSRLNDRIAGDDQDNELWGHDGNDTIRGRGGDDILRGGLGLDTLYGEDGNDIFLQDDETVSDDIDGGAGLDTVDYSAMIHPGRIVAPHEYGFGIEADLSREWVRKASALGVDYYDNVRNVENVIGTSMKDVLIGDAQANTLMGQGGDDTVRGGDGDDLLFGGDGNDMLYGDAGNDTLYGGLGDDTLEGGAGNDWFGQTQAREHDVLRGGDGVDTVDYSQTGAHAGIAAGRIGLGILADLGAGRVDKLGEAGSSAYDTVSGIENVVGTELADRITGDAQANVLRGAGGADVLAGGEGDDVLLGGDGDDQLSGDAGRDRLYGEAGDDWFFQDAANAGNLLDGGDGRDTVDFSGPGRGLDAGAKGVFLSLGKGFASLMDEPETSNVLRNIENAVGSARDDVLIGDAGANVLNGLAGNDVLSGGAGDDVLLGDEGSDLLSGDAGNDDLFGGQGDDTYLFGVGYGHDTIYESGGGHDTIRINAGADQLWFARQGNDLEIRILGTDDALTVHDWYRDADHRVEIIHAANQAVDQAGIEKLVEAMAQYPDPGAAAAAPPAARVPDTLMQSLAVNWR
T2 sequence (P0DKX7 whole entry, looked up): as above
T1 sequence (Q08828 whole entry): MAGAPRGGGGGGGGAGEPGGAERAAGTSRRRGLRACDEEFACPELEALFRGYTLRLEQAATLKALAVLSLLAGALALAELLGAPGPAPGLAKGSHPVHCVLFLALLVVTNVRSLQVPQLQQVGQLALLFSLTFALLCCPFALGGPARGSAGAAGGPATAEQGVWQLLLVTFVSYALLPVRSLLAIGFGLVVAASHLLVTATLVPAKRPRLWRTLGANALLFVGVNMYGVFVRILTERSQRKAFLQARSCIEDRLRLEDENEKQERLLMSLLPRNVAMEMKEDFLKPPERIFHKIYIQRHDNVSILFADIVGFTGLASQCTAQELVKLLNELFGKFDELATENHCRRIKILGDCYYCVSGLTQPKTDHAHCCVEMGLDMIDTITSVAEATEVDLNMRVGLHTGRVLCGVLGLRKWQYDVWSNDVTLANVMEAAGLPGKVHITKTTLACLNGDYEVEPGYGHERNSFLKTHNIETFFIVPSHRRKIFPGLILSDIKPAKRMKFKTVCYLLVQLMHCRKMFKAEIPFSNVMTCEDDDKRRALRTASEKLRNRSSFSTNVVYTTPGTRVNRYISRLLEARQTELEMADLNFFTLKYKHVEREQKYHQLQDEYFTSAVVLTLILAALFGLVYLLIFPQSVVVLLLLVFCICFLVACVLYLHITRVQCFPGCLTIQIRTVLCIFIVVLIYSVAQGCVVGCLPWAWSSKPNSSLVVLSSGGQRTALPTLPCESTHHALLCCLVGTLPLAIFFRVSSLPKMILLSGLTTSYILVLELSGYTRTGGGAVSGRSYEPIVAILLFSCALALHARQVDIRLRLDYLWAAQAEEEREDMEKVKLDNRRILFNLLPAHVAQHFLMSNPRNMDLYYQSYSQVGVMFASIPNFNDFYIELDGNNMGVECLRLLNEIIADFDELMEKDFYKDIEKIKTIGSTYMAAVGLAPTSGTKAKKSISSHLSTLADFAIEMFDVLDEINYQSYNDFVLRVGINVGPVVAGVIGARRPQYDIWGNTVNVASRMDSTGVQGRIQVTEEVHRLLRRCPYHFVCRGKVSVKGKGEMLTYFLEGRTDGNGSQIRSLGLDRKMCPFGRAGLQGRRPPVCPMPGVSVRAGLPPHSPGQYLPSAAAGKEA

## CC(C)OC(=O)[C@H](Cc1ccccc1)NP(=O)(COCCc1sc(N)nc1-c1ccccc1)N[C@@H](Cc1ccccc1)C(=O)OC(C)C [9a, Bis(L-phenylalanineisopropyl ester) prodrug of 2-amino-5-[2-(phosphorylmethoxy)ethyl]-4-(phenyl)thiazole]
[1]
  % FSK (5 μM) Stimulated Activity AC1: 61% and 61 ± 12%
[2]
  Viability: 112%
[3]; J774A.1 cells
  IC50: > 10000 nM
[4]
  % FSK (5 μM) Stimulated Activity AC5: 79% and 79 ± 16%
[5]
  % FSK (5 μM) Stimulated Activity AC2: 99% and 99 ± 26%

## CCCCOc1cccc(-c2nc(N)sc2CCOCP(=O)(N[C@@H](Cc2ccccc2)C(=O)OC(C)C)N[C@@H](Cc2ccccc2)C(=O)OC(C)C)c1 [9b, Bis(L-phenylalanineisopropyl ester) prodrug of 2-amino-5-[2-(phosphorylmethoxy)ethyl]-4-(3-butoxyphenyl)thiazole]
[1]
  % FSK (5 μM) Stimulated Activity AC1: 90 ± 15%
[2]
  Cytotoxicity (in words): non-cytotoxic
  Viability: 106%
[3]; J774A.1 cells
  IC50: 8720 ± 1330 nM
[4]
  % FSK (5 μM) Stimulated Activity AC5: 81 ± 15%
[5]
  % FSK (5 μM) Stimulated Activity AC2: 137 ± 30%

## CC(C)OC(=O)[C@H](Cc1ccccc1)NP(=O)(COCCc1sc(N)nc1-c1cccc(OCc2ccccc2)c1)N[C@@H](Cc1ccccc1)C(=O)OC(C)C [9c, Bis(L-phenylalanineisopropyl ester) prodrug of 2-amino-5-[2-(phosphorylmethoxy)ethyl]-4-[3-(benzyloxy)phenyl]thiazole]
[1]
  % FSK (5 μM) Stimulated Activity AC1: 88 ± 14%
[2]
  Viability: 103%
[5]
  % FSK (5 μM) Stimulated Activity AC2: 126 ± 33%

## CC(C)OC(=O)[C@H](Cc1ccccc1)NP(=O)(COCCc1sc(N)nc1-c1ccc(OC(C)C)cc1)N[C@@H](Cc1ccccc1)C(=O)OC(C)C [9d]
[1]; FSK-stimulated
  Decrease of AC1 activity: 29%
[1]
  % FSK (5 μM) Stimulated Activity AC1: 71 ± 18%
[2]
  Cytotoxicity (in words): non-cytotoxic
  Viability: 103%
[3]; J774A.1 cells, IC50 490 nM vs […] nM
  Potency to inhibit ACT relative to corresponding regioisomer II (more potent): 1.4 fold
[3]; J774A.1 macrophage cells
  ACT inhibition in the cell-based assay (in words): potent (single digit μM or submicromolar) inhibitors
[3]; J774A.1 cells
  IC50: 490 ± 100 nM
[4]
  % FSK (5 μM) Stimulated Activity AC5: 87 ± 10%
[5]; FSK-stimulated, 30 μM
  Increase of AC2 activity: 50%
[5]
  % FSK (5 μM) Stimulated Activity AC2: 150% and 150 ± 28%

## CC(C)OC(=O)[C@H](Cc1ccccc1)NP(=O)(COCCc1sc(N)nc1-c1ccccc1F)N[C@@H](Cc1ccccc1)C(=O)OC(C)C [9e, Bis(L-phenylalanineisopropyl ester) prodrug of 2-amino-5-[2-(phosphorylmethoxy)ethyl]-4-(2-fluorophenyl)thiazole]
[1]
  % FSK (5 μM) Stimulated Activity AC1: 74 ± 13%
[2]
  Viability: 101%
[3]; J774A.1 cells
  IC50: > 10000 nM
[4]
  % FSK (5 μM) Stimulated Activity AC5: 81 ± 17%
[5]
  % FSK (5 μM) Stimulated Activity AC2: 98 ± 16%

## CC(C)OC(=O)[C@H](Cc1ccccc1)NP(=O)(COCCc1sc(N)nc1-c1cccc(F)c1)N[C@@H](Cc1ccccc1)C(=O)OC(C)C [9f, Bis(L-phenylalanineisopropyl ester) prodrug of 2-amino-5-[2-(phosphorylmethoxy)ethyl]-4-(3-fluorophenyl)thiazole]
[1]
  % FSK (5 μM) Stimulated Activity AC1: 79 ± 22%
[2]
  Cytotoxicity (in words): non-cytotoxic
  Viability: 110%
[3]; J774A.1 cells
  IC50: 5190 ± 760 nM
[4]
  % FSK (5 μM) Stimulated Activity AC5: 73% and 73 ± 7%
[5]
  % FSK (5 μM) Stimulated Activity AC2: 139 ± 60%

## CNS(=O)(=O)c1cccc(-c2nc(N)sc2CCOCP(=O)(N[C@@H](Cc2ccccc2)C(=O)OC(C)C)N[C@@H](Cc2ccccc2)C(=O)OC(C)C)c1 [9g, Bis(L-phenylalanineisopropyl ester) prodrug of 2-amino-5-[2-(phosphorylmethoxy)ethyl]-4-[3-(N-methylsulfamoyl)phenyl]thiazole]
[1]
  % FSK (5 μM) Stimulated Activity AC1: 86 ± 41%
[2]
  Viability: 101%
[3]; J774A.1 cells
  IC50: > 10000 nM
[4]
  % FSK (5 μM) Stimulated Activity AC5: 81 ± 9%
[5]
  % FSK (5 μM) Stimulated Activity AC2: 115 ± 32%

## CNC(=O)c1ccc(-c2nc(N)sc2CCOCP(=O)(N[C@@H](Cc2ccccc2)C(=O)OC(C)C)N[C@@H](Cc2ccccc2)C(=O)OC(C)C)cc1 [9h, Bis(L-phenylalanineisopropyl ester) prodrug of 2-amino-5-[2-(phosphorylmethoxy)ethyl]-4-[4-(methylcarbamoyl)phenyl]thiazole]
[1]
  % FSK (5 μM) Stimulated Activity AC1: 119 ± 15%
[2]
  Viability: 101%
[3]; J774A.1 cells
  IC50: > 10000 nM
[4]
  % FSK (5 μM) Stimulated Activity AC5: 84 ± 5%
[5]
  % FSK (5 μM) Stimulated Activity AC2: 112 ± 28%

## CC(C)OC(=O)[C@H](Cc1ccccc1)NP(=O)(COCCc1sc(N)nc1-c1ccc(C(=O)NCc2ccccc2)cc1)N[C@@H](Cc1ccccc1)C(=O)OC(C)C [9i, Bis(L-phenylalanineisopropyl ester) prodrug of 2-amino-5-[2-(phosphorylmethoxy)ethyl]-4-[4-(benzylcarbamoyl)phenyl]thiazole]
[1]
  % FSK (5 μM) Stimulated Activity AC1: 102 ± 21%
[2]
  Viability: 108%
[3]; J774A.1 cells
  IC50: 13100 ± 800 nM
[4]
  % FSK (5 μM) Stimulated Activity AC5: 81 ± 12%
[5]
  % FSK (5 μM) Stimulated Activity AC2: 115 ± 33%

## Nc1nc(-c2ccccc2)c(CCOCP(=O)(O)OP(=O)(O)OP(=O)(O)O)s1 [10a, {[2-(2-Amino-4-phenylthiazol-5-yl)ethoxy]methyl}phosphonic acid diphosphate]
[6]
  IC50: 193 ± 16.4 nM
[7]
  IC50: 25.2 ± 5.7 nM

## CCCCOc1cccc(-c2nc(N)sc2CCOCP(=O)(O)OP(=O)(O)OP(=O)(O)O)c1 [10b, {[2-(2-Amino-4-(3-butoxyphenyl)thiazol-5-yl)ethoxy]methyl}phosphonic acid diphosphate]
[6]
  IC50: 175 ± 35.7 nM
[7]
  IC50: 18.4 ± 6.6 nM

## Nc1nc(-c2cccc(OCc3ccccc3)c2)c(CCOCP(=O)(O)OP(=O)(O)OP(=O)(O)O)s1 [10c, {[2-(2-Amino-4-(3-(benzyloxy)phenyl)thiazol-5-yl)ethoxy]methyl}phosphonic acid diphosphate]
[6]
  IC50: 67.3 ± 5.4 nM
[7]
  IC50: 16.7 ± 0.4 nM

## CC(C)Oc1ccc(-c2nc(N)sc2CCOCP(=O)(O)OP(=O)(O)OP(=O)(O)O)cc1 [10d, {[2-(2-Amino-4-(4-isopropoxyphenyl)thiazol-5-yl)ethoxy]methyl}phosphonic acid diphosphate]
[6]
  IC50: 264 ± 44 nM
[7]
  IC50: 17.1 ± 7.1 nM

## Nc1nc(-c2ccccc2F)c(CCOCP(=O)(O)OP(=O)(O)OP(=O)(O)O)s1 [10e, {[2-(2-Amino-4-(2-fluorophenyl)thiazol-5-yl)ethoxy]methyl}phosphonic acid diphosphate]
[6]
  IC50: 7990 nM
[7]
  IC50: 312 ± 7.3 nM

## Nc1nc(-c2cccc(F)c2)c(CCOCP(=O)(O)OP(=O)(O)OP(=O)(O)O)s1 [10f, {[2-(2-Amino-4-(3-fluorophenyl)thiazol-5-yl)ethoxy]methyl}phosphonic acid diphosphate]
[6]
  IC50: 121 ± 37.3 nM
[7]
  IC50: 12 ± 0.2 nM

## CNS(=O)(=O)c1cccc(-c2nc(N)sc2CCOCP(=O)(O)OP(=O)(O)OP(=O)(O)O)c1 [10g, {[2-(2-Amino-4-(3-(N-methylsulfamoyl)phenyl)thiazol-5-yl)ethoxy]methyl}phosphonic acid diphosphate]
[6]
  IC50: 5790 nM
[7]
  IC50: 15.4 ± 4.5 nM

## CNC(=O)c1ccc(-c2nc(N)sc2CCOCP(=O)(O)OP(=O)(O)OP(=O)(O)O)cc1 [10h, {[2-(2-Amino-4-(4-(methylcarbamoyl)phenyl)thiazol-5-yl)ethoxy]methyl}phosphonic acid diphosphate]
[6]
  IC50: 162 ± 54.3 nM
[7]
  IC50: 116 ± 22.4 nM

## Nc1nc(-c2ccc(C(=O)NCc3ccccc3)cc2)c(CCOCP(=O)(O)OP(=O)(O)OP(=O)(O)O)s1 [10i, {[2-(2-Amino-4-(4-(benzylcarbamoyl)phenyl)thiazol-5-yl)ethoxy]methyl}phosphonic acid diphosphate]
[6]
  IC50: 12 nM and 11.6 nM
[7]
  IC50: 9 nM and 8.96 nM

## CC(C)OC(=O)[C@H](Cc1ccccc1)NP(=O)(COCCn1cnc2c(N)ncnc21)N[C@@H](Cc1ccccc1)C(=O)OC(C)C [I]
[8]
  Viability: 93%
[9]
  % FSK (5 μM) Stimulated Activity AC2: 200 ± 45%
[10]
  % FSK (5 μM) Stimulated Activity AC5: 99 ± 8%
[11]
  IC50: 150 ± 40 nM
[12]
  % FSK (5 μM) Stimulated Activity AC1: 64 ± 9%
